Test results reported in patent US20250170111A1, “PYRIDINE BASED CHALCONE ANALOGS AS THERAPEUTIC AGENTS AND USE THEREOF” (QATAR UNIVERSITY, priority 2023, published 2025).
Like-named read-outs stand apart in the source and are kept apart here.

Legend:
[1] = tested on: PC3; test: Annexin V / 7-AAD apoptosis assay, PC3; type: cell-based, human; details: 48 hours
Method: (§1) Cellular apoptosis was assessed by PE Annexin V apoptosis Detection Kit (BDPharmingen, USA) as per the manufacturer's protocol. Briefly, cells were seeded in 100 mm Petri dishes at a density of 1.5 million cells/dish and incubated overnight. […] Adherent and floating cells were then harvested by trypsin, washed twice by PBS, resuspended in binding buffer and stained with Phycoerythrin (PE) conjugated Annexin-V, 7-AAD or both stains for 15 minutes. After staining, samples were analyzed by BD FACSAria™ II Flow Cytometer and FlowJo software. First, the cell population, excluding debris, was gated with forward scatter (FSC-A) and side scatter (SSC-A). Then, doublets were excluded using FSC-height and FSC-width plots. […] Quad Gates were used to calculate the percentage of viable cells (annexin V low, 7-AAD low), early pro-apoptotic cells (annexin V high, 7-AAD low) and late apoptosis/dead cells (annexin V high, 7-AAD high).

[2] = tested on: DU145; test: Annexin V / 7-AAD apoptosis assay, DU145; type: cell-based, human; details: 48 hours
Method: as §1

[3] = tested on: DU145; test: Cell cycle analysis (PI flow cytometry), DU145; type: cell-based, human; details: DU145, 48 hours; not statistically significant (P>0.05)
Method: Cells were seeded in 100 mm Petri dishes at a density of 1.5 million cells/dish and incubated in RPMI supplemented with 10% FBS overnight at 37° C. Complete culture media was then removed, and cells were starved in serum serum-free for 16 hours to synchronize cells at the G0/G1 phase of the cell cycle. Subsequently, cells were treated with the compounds 13, 15, and 16 or docetaxel for 48 hours. After treatment, floating and adherent cells were collected, washed with ice-cold PBS and centrifuged at 500 g for 10 minutes at 4° C. Next, cells were fixed with ice-cold 70% ethanol added drop wisely while vertexing and stored at −20° C. for at least 24 hours. On the day of analysis, cells were pelleted (centrifuged at 800 g for 10 minutes at 4° C.), washed twice with ice-cold PBS and counted. Around one million cells of each sample were resuspended in 500 μl of FxCycle PI/RNase Staining Solution® (Thermo Fisher Scientific, USA) supplemented with 200 μg/ml RNase and incubated for 50 minutes at 37° C. in a shaking water bath, protected from light. Following incubation, cells were immediately analyzed by BD FACSAria™ II Flow Cytometer, at least 50,000 events were acquired for each sample. The proportion of cells in each cell cycle phase: […]

[4] = tested on: PC3; test: Soft agar colony formation assay, PC3; type: cell-based, human; parameters: average size of detected colonies, PC3: unit not given here; details: 10 μM
Method: (§2) Anchorage-independent growth, a characteristic of transformed cells that correlate with in vivo tumorigenic potential, was assessed by soft agar assay. First, a 2% noble agar (Sigma-Aldrich) stock solution was prepared in deionized and autoclaved water. […] After 14 days, the average number of colonies in each well was counted manually under the microscope and confirmed by ImageJ; only colonies with an area larger than […] were counted to avoid the inclusion of non-proliferating dead cells. Besides, the size of colonies in each treatment condition was measured by ImageJ from at least six random fields per well.

[5] = tested on: DU145; test: Soft agar colony formation assay, DU145; type: cell-based, human; parameters: average size of detected colonies, DU145: unit not given here; details: 10 μM
Method: as §2

[6] = tested on: PC3 and DU145; test: Soft agar colony formation assay, PC3 and DU145 (stated for both); type: cell-based, human; details: 5 and 10 μM, 14 days, both cell lines
Method: as §2

[7] = tested on: CAM of chicken embryos; test: Chorioallantoic membrane (CAM) angiogenesis assay; type: in vivo; details: in ovo, 48 hours post-treatment, vs control
Method: Fertilized white leghorn chicken eggs were obtained from Arab […] for Poultry Production, Doha, Qatar. Eggs were incubated in a rotary humidified MultiQuip Incubator at 37° C. with 60% humidity. Ethics approval was obtained from Institutional Animal Care & Use Committee and Institutional Bio-safety committee at Qatar University. […] Briefly, eggshells were disinfected with ethanol and a small opening was made in the shell over the air sac. Next, 200 μl of 1×PBS was added and the shell membrane was carefully removed. […] Subsequently, opened windows were sealed and the eggs were returned to a stationary incubator (FIG. 11). The effect of compounds on angiogenesis was monitored for 48 hours post-treatment and microscopic images of exposed (under coverslip) and unexposed area in each embryo were captured at equivalent magnification. Images were then analyzed using AngioTool software using the following parameters: vessel diameter thresholds at, vessel thickness at 7 and 10, removed small particles at 60, and filled holes at 183. The difference in blood vessel formation between treated and untreated embryos was assessed based on average vessel length, vessel percentage area and the total number of blood vessel junctions. […]

[8] = tested on: PC3 and DU145; test: Morphological examination, PC3 and DU145; type: cell-based, human; details: 5 μM
Method: Cells were seeded in 6 wells plate at a density of 150,000-200,000 cells/well and were incubated overnight. Then, cells were treated with the synthesized compounds at 5-10 μM concentration for 48 hours. Morphological changes were monitored using a DMi8 inverted microscope (Leica, Germany) and images were captured with a Leica MC170 HD camera.
The induction of apoptosis in cancer cells has been widely considered an important criterion in developing anticancer drugs. To confirm whether the synthesized compounds could reduce cell viability and induce apoptosis in PC3 and DU145, prostate cancer cells were treated with compounds 1-16 at 10 μM concentrations for 48 hours. Cells were examined for the formation of apoptotic bodies or death by phase-contrast microscopy (FIGS. 21 and 22). More importantly, cells were monitored for characteristic changes in cell morphology as they can provide insight into cell differentiation, invasiveness, survival, and genetic alterations.

[9] = tested on: PC3 and DU145; test: Wound healing assay, PC3 and DU145; details: both cell lines; significant from 5 μM in PC3
[10] = tested on: PC3; test: Alamar Blue cell viability assay, PC3
[11] = tested on: DU145; test: Alamar Blue cell viability assay, DU145; details: Homo sapiens, DU-145, 48 h
[12] = tested on: E-cadherin; test: Western blot of EMT-related biomarkers in DU145; details: DU145 cells
[13] = tested on: primary human dental bulb cells (ND); test: Alamar Blue cell viability, normal primary dental cells; details: 48 hours, Mean ± SEM
[14] = tested on: JNK1/2/3, ERK1/2, Akt; test: Western blot of JNK, ERK and AKT-related biomarkers in PC3; details: PC3 cell line
[15] = tested on: Bax, Bcl-2; test: Western blot of apoptosis-related proteins in PC3 and DU145; details: PC3 and DU145, 48 hours of treatment
[16] = tested on: PC3 and DU145; test: Alamar Blue cell viability, AR-negative PCa cell lines (stated for both); details: Homo sapiens, DU-145, read-out: IC50 against PC3 and DU145 cell lines
[17] = 14 days, in comparison to control

SMILES: COc1cccc(C(=O)/C=C/c2cccc(-c3ccsc3)n2)c1 [Compound 16, (E)-1-(3-methoxyphenyl)-3-(6-(thiophen-3-yl)pyridin-2-yl) prop-2-en-1-one]
- induction of apoptosis in PC3 [1]: 34.7%
- induction of apoptosis in DU145 [2]: 47.8%
- effect on cell cycle distribution [3]: slight accumulation in G2/M and sub G1 phases
- reduction in number of colonies, PC3 [4, 17]: 82.8%
- average size of detected colonies, PC3 ([4]; control 583.2): 20.0
- reduction in number of colonies, DU145 [5, 17]: 84.9%
- average size of detected colonies, DU145 ([5]; control 196.0): 18.7
- colony formation in soft agar (number and size) [6]: significant reduction in both the total number of colonies and average colony size
- effect on angiogenesis of the CAM [7]: significant reduction in average vessel length, a total number of junctions, and vessel area
- effect on cell morphology [8]: increased cell detachment, the formation of apoptotic bodies, and cell shrinkage
- wound closure [9]: dose-dependent reduction in wound closure
- reduction in cell viability of PC3 ([10]; 2.5 μM): 47.5%
- IC50 ([10]; read-out: PC3 IC50, 48 hours, Mean ± SEM of three independent experiments): 4.32 ± 0.37 µM
- IC50 ([11]; read-out: DU145 IC50): 5.2 ± 0.46 µM
- IC50 ([11]; read-out: IC50 against DU145): 5.2 µM
- cytotoxicity at 10 µM ([11]; read-out: reduction in cell viability of DU145): 81%
- expression of E-cadherin [12]: significantly upregulate the expression of E-cadherin
- ND LD50 [13]: 24.67 ± 1.03 µM
- expression of JNK1/2/3, ERK1/2, Akt and phosphorylated forms [14]: significantly reduced the expression of JNK1/2/3 and phosphorylated ERK1/2
- Bax/Bcl-2 expression [15]: significant increase in Bax/Bcl-2 ratio
- IC50 [16]: 4.32 to 6.47 µM
